Assays:
Experiment in all cases: two-electrode voltage clamp, Xenopus oocytes
Format in all cases: cell-based
AalbOR9 = molecular target: T1, AalbOR9 (Aedes albopictus, UniProt A0ABM1YMM4)
T1 sequence (A0ABM1YMM4 1-377): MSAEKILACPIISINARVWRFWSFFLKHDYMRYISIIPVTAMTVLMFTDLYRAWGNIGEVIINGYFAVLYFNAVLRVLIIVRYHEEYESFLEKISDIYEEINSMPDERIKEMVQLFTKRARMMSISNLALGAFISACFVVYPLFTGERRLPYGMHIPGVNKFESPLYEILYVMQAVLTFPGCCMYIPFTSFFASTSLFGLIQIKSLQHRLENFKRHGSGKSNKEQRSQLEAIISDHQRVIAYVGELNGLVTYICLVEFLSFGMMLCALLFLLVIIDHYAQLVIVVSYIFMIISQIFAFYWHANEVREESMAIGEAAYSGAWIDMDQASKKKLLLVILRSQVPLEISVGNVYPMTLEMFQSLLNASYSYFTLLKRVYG
T1 sequence (A0ABM1ZN50 1-479 partner): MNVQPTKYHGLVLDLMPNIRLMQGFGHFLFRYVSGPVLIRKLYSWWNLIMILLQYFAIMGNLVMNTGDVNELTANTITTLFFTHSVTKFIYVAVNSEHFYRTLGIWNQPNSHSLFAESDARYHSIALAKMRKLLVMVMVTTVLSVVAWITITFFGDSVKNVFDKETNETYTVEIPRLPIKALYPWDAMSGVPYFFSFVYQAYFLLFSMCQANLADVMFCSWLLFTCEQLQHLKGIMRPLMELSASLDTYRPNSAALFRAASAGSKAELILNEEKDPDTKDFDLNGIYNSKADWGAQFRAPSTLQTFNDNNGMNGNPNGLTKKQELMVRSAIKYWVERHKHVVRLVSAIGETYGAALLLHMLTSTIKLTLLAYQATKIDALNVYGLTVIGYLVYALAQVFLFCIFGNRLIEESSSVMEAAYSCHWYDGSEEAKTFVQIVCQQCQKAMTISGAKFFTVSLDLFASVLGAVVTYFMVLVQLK

AalbOR10 = molecular target: T2, AalbOR10 (Aedes albopictus, UniProt A0ABM1Y0Z3)
T2 sequence (A0ABM1Y0Z3 1-403): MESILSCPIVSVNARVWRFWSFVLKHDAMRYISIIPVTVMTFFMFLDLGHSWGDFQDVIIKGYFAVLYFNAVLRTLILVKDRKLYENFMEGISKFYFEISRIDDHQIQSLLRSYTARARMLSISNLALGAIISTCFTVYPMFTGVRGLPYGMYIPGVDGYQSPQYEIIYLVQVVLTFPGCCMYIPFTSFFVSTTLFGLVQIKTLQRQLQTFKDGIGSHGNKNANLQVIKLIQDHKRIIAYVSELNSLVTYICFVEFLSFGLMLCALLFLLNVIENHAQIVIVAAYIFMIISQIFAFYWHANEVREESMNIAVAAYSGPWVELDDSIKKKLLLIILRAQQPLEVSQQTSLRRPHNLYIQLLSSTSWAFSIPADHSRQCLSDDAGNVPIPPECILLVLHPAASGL
T2 sequence (A0ABM1ZN50 1-479 partner): T1 sequence (A0ABM1ZN50 1-479 partner)

AalbOR2 = molecular target: T3, AalbOR2 (Aedes albopictus, UniProt A0ABM1YVB6)
T3 sequence (A0ABM1YVB6 1-376): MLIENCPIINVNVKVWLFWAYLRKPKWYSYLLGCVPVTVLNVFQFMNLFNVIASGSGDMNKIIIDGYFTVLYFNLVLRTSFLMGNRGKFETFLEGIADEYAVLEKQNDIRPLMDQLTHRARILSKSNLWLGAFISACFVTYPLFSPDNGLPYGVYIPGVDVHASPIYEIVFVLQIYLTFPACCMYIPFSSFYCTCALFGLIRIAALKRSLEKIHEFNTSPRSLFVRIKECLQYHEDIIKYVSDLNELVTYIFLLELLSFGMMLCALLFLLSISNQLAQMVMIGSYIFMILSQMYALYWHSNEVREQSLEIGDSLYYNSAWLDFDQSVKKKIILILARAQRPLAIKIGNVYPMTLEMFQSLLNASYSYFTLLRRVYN
T3 sequence (A0ABM1ZN50 1-479 partner): T1 sequence (A0ABM1ZN50 1-479 partner)

| Structure (SMILES) | EC50 (AalbOR9) [nM] | EC50 (AalbOR10) [µM] | EC50 (AalbOR2) [µM] |
| --- | --- | --- | --- |
| c1ccc2[nH]ccc2c1 [indole] | 1700 | 23.7 | 0.77 |
| Cc1c[nH]c2ccccc12 [skatole] | 54 | 3.9 | 10.1 |

Source: article doi:10.1101/2025.06.07.658027v2 (biorxiv, 2025)
